Reference: patent publication US10759803B2, “Asparagine endopeptidase (AEP) inhibitors for managing cancer and compositions related thereto” (priority 2014, dated 2020)

Assays:
[1] = test system: amyloid precursor protein (APP) cleavage; experiment: APP cleavage in OGD-treated primary cortical neurons; type: cell-based
Protocol: A. AEP activity, measured in primary neuronal cultures with 5 μM Cbz-Ala-Ala-Asn-AMC (x-axis denotes neurons were treated with 0.1 μM or 1.0 μM specified compound). B. Caspase activity, measured in primary neuronal cultures with 5 μM Ac-Asp-Glu-Val-Asp-AMC. C. Cathepsin activity, measured in primary neuronal cultures with 5 μM D-Val-Leu-Lys-AMC. D. Inhibition of APP cleavage. Lysates of primary cortical neurons pre-incubated with compounds for 30 min, underwent OGD for 4 hrs, were reperfused for 18 hrs (normoxia neurons remained at normoxic conditions). E. APP can be cleaved in a dose-dependent manner. Lysates of primary cortical neurons pre-incubated with compounds for 30 min, underwent OGD for 4 hrs, were reperfused for 18 hrs (normoxia neurons remained at normoxic conditions).
Depriving cells of oxygen and glucose is a cellular model that is employed to trigger acidosis in cultured cells. The efficacy of the compounds in a cellular model of oxygen-glucose deprivation (OGD) was determined in an effort to mimic the effects of stroke in primary cultured neurons. As a result of depriving neurons of oxygen and glucose-containing medium, AEP activity was doubled (FIG. 7A, ‘DMSO-Norm’ compared to ‘DMSO-OGD’), while Caspase-3 and Cathepsin activities remained relatively unchanged. […] Cleavage of APP is observed in response to only DMSO treatment (FIG. 7D, lane 2), and it appears that upon the treatment of 1 μM of compounds 10, 11, and 12, and just 0.1 μM of compound s31, 38 and 64, the cleavage was blocked, presumably due to AEP inhibition.

[2] = target: T1, AEP (Homo sapiens, UniProt Q99538); experiment: DTT / L-cysteine reversibility of AEP inhibition; type: biochemical; conditions: 10 mM DTT or L-cysteine added after 15 min
T1 construct: tested with purified active AEP, IC50 values for the top 8 candidates were found
T1 sequence (Q99538 18-323 limits assumed): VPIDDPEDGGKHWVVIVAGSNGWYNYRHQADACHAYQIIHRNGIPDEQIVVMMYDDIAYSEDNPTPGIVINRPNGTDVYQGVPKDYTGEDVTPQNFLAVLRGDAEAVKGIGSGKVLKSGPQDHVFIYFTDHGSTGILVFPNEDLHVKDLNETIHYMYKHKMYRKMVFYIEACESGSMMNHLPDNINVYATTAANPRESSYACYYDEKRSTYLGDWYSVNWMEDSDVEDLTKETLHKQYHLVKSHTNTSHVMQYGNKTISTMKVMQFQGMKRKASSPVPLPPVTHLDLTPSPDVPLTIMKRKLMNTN
Protocol: AEP was reacted with specified inhibitor, after 15 min 10 mM DTT or L-cysteine was added to the reaction and the fluorescent signal was read for an additional 15 min. At the end of the second 15 min incubation, the percentage of product formed in the presence of each compound was determined in comparison to the DMSO control reaction.
Although it is not intended that embodiments of this disclosure be limited by any particular mechanism, to gain additional insight into the mechanism utilized by the inhibitors for abrogation of AEP activity, their reversibility in the presence of free thiols was determined. The addition of a strong reducing agent, such as DTT, or a weaker reducing agent, L-cysteine, to an inhibited reaction can be used to out-compete the inhibitory agent and restore catalytic activity to an enzyme with an active-site thiol residue. Here, a similar approach was used by adding a reducing agent, either DTT or L-cysteine, to a reaction, in which AEP had been incubated with a specified inhibitor, in an attempt to reverse the effects of the inhibitor. […] For compounds BB1 and 38, this increase in enzymatic activity may be due to the reduction of a disulfide linkage between the inhibitor and the enzyme, since these compounds contain thiols. Compound 10 contains a thiocyanate and may undergoes nucleophilic attack by the enzyme's active-site thiolate to form a thioimidate enzyme-inhibitor complex. Under acidic conditions, this complex is reducible by either a strong reducing agent, such as DTT, or the weaker L-cysteine.

[3] = target: T2, endogenous AEP in human B lymphoblastoid pala cells (Homo sapiens, UniProt Q99538); experiment: AEP inhibition in intact Pala cells; type: cell-based; conditions: 2 hrs incubation, residual enzymatic activity in lysate
T2 construct: human B lymphoblastoid pala cells, which are rich in endogenous AEP; endogenous in cells; host or cells: human B lymphoblastoid Pala cells
T2 sequence (Q99538 18-323): T1 sequence (Q99538 18-323 limits assumed)
Protocol: The cells were incubated with inhibitors for 2 hrs then cells washed, harvested and lysed and the residual enzymatic activity was determined. Lysate was normalized by Bradford assay and the experiment was performed in triplicate and the mean results and SEM were plotted.
In an attempt to assess the activity of the compounds in intact cells, the compounds were incubated with human B lymphoblastoid pala cells, which are rich in endogenous AEP and have been used for inhibiting AEP in cellular assay.

[4] = target: CYP2D6 (Homo sapiens, UniProt P10635); experiment: CYP inhibition screening, CYP2D6; type: in vitro ADME
CYP2D6, sequence (P10635 whole entry): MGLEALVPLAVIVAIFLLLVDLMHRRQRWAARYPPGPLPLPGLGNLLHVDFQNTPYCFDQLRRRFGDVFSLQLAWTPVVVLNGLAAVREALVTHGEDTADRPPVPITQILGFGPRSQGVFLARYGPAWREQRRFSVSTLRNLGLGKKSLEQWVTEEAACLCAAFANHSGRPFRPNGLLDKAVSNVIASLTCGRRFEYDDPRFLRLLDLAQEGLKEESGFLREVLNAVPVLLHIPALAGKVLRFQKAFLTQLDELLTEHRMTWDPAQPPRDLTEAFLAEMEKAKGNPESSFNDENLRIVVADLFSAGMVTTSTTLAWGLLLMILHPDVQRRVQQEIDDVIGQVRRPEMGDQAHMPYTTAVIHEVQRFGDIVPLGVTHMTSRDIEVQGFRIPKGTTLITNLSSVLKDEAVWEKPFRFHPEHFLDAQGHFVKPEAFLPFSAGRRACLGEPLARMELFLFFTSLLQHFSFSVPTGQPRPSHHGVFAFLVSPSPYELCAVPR

[5] = BBB-PAMPA permeability assay; type: in vitro ADME
[6] = Human liver microsomal stability screen; conditions: Human liver microsomes
[7] = Mouse liver microsomal stability screen; conditions: Mouse liver microsomes
[8] = target: T3, CYP1A2 (Homo sapiens, UniProt P05177); experiment: CYP inhibition screening, CYP1A2; type: in vitro ADME
T3 sequence (P05177 1-516): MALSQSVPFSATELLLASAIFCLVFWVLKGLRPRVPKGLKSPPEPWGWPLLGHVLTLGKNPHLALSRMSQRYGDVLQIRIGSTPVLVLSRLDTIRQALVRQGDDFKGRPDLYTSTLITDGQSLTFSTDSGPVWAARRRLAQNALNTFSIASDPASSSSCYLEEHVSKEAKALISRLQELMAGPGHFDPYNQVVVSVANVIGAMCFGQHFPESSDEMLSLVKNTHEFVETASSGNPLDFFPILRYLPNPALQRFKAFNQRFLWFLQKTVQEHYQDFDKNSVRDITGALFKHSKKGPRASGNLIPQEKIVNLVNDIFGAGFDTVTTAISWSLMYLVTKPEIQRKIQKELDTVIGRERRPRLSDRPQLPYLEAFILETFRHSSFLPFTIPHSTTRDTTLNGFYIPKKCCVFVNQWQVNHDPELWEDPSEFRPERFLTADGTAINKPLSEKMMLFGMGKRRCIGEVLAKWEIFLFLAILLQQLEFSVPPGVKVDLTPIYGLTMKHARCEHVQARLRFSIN

[9] = target: CYP3A4 (Homo sapiens, UniProt P08684); experiment: CYP inhibition screening, CYP3A4-Midazolam; type: in vitro ADME
CYP3A4, sequence (P08684 whole entry): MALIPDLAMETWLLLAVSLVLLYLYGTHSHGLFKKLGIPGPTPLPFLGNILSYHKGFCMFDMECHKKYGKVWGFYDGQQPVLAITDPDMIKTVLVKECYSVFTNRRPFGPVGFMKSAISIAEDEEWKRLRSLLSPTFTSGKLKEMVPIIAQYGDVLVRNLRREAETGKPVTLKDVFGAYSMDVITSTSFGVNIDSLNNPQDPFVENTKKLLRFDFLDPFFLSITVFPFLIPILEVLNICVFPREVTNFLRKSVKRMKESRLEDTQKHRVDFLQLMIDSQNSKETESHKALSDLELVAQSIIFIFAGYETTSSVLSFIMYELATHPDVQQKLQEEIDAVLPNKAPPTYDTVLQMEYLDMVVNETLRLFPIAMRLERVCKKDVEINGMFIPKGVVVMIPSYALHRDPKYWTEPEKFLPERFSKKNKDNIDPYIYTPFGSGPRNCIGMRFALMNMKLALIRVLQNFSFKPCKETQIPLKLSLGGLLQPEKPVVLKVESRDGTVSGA

[10] = target: CYP2C19 (Homo sapiens, UniProt P33261); experiment: CYP inhibition screening, CYP2C19; type: in vitro ADME
CYP2C19, sequence (P33261 whole entry): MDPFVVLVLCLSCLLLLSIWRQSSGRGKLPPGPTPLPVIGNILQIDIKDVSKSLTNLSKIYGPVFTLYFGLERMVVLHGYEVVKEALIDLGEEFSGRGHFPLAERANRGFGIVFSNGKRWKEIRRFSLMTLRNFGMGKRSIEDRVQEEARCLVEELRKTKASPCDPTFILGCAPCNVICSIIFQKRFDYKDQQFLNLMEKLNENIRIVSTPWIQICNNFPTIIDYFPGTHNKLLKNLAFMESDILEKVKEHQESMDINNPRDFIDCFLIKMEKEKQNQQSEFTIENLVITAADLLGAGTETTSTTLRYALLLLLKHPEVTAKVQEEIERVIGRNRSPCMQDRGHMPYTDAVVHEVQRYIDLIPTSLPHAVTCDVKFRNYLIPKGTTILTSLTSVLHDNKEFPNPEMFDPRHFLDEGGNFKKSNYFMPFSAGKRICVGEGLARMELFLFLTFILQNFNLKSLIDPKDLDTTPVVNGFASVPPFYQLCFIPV

[11] = test system: CYP3A; experiment: CYP inhibition screening, CYP3A-Testosterone; type: in vitro ADME
[12] = target: CYP2C9 (Homo sapiens, UniProt P11712); experiment: CYP inhibition screening, CYP2C9; type: in vitro ADME
CYP2C9, sequence (P11712 whole entry): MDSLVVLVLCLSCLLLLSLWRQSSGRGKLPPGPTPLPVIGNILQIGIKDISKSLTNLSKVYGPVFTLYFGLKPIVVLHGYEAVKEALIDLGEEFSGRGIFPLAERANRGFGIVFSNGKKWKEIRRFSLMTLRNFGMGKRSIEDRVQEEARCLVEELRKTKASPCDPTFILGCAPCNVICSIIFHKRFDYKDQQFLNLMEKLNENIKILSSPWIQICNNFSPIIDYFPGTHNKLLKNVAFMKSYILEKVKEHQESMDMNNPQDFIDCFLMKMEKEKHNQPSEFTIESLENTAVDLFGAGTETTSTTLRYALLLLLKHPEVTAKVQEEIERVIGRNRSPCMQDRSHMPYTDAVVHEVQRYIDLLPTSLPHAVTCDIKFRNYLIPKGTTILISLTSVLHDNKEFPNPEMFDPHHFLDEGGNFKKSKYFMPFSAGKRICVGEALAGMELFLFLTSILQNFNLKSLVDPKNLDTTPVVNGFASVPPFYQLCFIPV

[13] = test system: Caco-2 monolayer; experiment: Caco-2 monolayer permeability screen
Protocol: To explore the in vitro ADME profiles of the compounds, additional tests were conducted.

[14] = target: Cathepsin-L (Homo sapiens, UniProt P07711); experiment: Specificity assay against Cathepsin-L; type: biochemical
Cathepsin-L, sequence (P07711 114-333, species assumed): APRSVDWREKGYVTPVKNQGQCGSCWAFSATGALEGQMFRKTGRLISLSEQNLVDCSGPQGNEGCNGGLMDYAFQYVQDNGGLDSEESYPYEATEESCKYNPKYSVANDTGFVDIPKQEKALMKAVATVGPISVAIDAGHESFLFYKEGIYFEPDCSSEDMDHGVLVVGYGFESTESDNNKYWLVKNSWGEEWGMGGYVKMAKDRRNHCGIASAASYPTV
Protocol: Purified recombinant enzyme was incubated with various concentrations of inhibitor in appropriate assay buffers in the presence of increasing concentrations of inhibitor. The formation of fluorescent product was monitored in duplicate reactions and the data was fit to appropriate equations to calculate the IC50 values.

N#CSc1cnc(N)s1 [Compound 10]
APP cleavage after OGD ([1]; 1 μM compound): blocked | APP cleavage after OGD, dose dependence ([1]; FIG. 7E): dose-dependent decrease | AEP activity after addition of reducing agent (reversibility) [2]: regained a substantial amount of activity | IC50 in intact Pala cells [3]: slightly larger IC50 values

COc1ccc(N2CCN(C(c3ccc(N(C)C)cc3)c3nnnn3C(C)(C)C)CC2)cc1 (centres unmarked) [Compound 31]
APP cleavage after OGD ([1]; 0.1 μM compound): blocked | CYP2D6 inhibition ([4]; 3 μM): 9.9% | CYP2D6 inhibition ([4]; 10 μM): 1.4% | Pe [5]: <LLOQ | Mean Remaining Parent (NADPH-free) [6]: 75% | Mean Remaining Parent (with NADPH) ([6]; 30 min): 12% | Mean Remaining Parent (NADPH-free) [7]: 86% | Mean Remaining Parent (with NADPH) [7]: 16% | CYP1A2 inhibition ([8]; 3 μM): 13.5% | CYP1A2 inhibition ([8]; 10 μM): 10.3% | CYP3A4-Midazolam inhibition ([9]; 3 μM): −0.9% | CYP3A4-Midazolam inhibition ([9]; 10 μM): 18.1% | CYP2C19 inhibition ([10]; 3 μM): 37.7% | CYP2C19 inhibition ([10]; 10 μM): 55.7% | CYP3A-Testosterone inhibition ([11]; 3 μM): 2.5% | CYP3A-Testosterone inhibition ([11]; 10 μM): 0.7% | CYP2C9 inhibition ([12]; 3 μM): 47.8% | CYP2C9 inhibition ([12]; 10 μM): 69.2% | Caco-2 permeability in words [13]: highly permeable | A −>B Papp ([13]; Table 1): 19.3 10^−6 cm · s^−1 | B −> A Papp ([13]; Table 1): 17.4 10^−6 cm · s^−1 | RE ([13]; Table 1): 0.9

Cn1c(=O)c2c(nc(S)n2C)n(C)c1=O [Compound 38D-16]
selectivity for AEP over Cathepsin-L [14]: 500 fold | A −>B Papp ([13]; table of derivatives): 0.9 10^−6 cm · s^−1 | B −> A Papp ([13]; table of derivatives): 3.0 10^−6 cm · s^−1 | RE ([13]; table of derivatives): 3.3

CNC(=C[N+](=O)[O-])NCCSCc1ccc(CN(C)C)o1 [Ranitidine, reference compound]
A −>B Papp ([13]; table of derivatives): 0.2 10^−6 cm · s^−1 | RE ([13]; table of derivatives): 8.1

Cn1c(S)nc2c1c(=O)n(Cc1ccccc1)c(=O)n2C [Compound 38D-22]
A −>B Papp ([13]; table of derivatives): 10.0 10^−6 cm · s^−1 | B −> A Papp ([13]; table of derivatives): 30.5 10^−6 cm · s^−1 | RE ([13]; table of derivatives): 3.0
